Source: patent publication US8461174B2, “Treatment for cutaneous metastases” (3M Innovative Properties Company, priority 2004, dated 2013)

What was measured:
[1] = tested on: cutaneous metastasis of Her2/neu-positive breast cancer (invasive lobular tumor cells); assay: Topical treatment of cutaneous metastasis of breast cancer in a patient (Example 1); format: in vivo, human; settings: person one
Procedure: (§1) The IRM compound used in the examples is 1-(2-methylpropyl)-1H-imidazo[4,5-c]quinolin-4-amine, formulated as a 5% cream available under the tradename ALDARA (3M Co., St. Paul, Minn.).
person one with breast cancer (UICC stage pT1c, pN1b1, M0, G2, estrogen-positive, progesterone-positive) developed an axillary recurrence and osteolytic metastases (L2-4) despite axillary dissection and neoadjuvant and adjuvant chemotherapy. The recurrent tumor and metastases were treated with radiation. Nine months later, the breast cancer recurred locally (rpT1c, M1, G2, estrogen-negative, progesterone-negative, Her2/neu-positive) and was treated with trastuzumab and percutaneous radiation. An inflammatory erythema occurred on the upper back (FIG. 1A). On histology, invasive lobular tumor cells (keratin-positive, Her2/neu-positive, ICAM-1-positive) were present (FIGS. 1B-1E.
(§2) 1-(2-methylpropyl)-1H-imidazo[4,5-c]quinolin-4-amine was administered topically five times per week for six months.

[2] = tested on: cutaneous metastasis of invasive ductal carcinoma (Her2/neu-negative); assay: Topical treatment of cutaneous metastasis of invasive ductal carcinoma in a patient (Example 2); format: in vivo, human; settings: person two; 5% cream (ALDARA) topically five times per week for six months
Procedure: as §1
person two with invasive ductal carcinoma (UICC stage T2, pN1, B2, cM0) that was estrogen-negative, progesterone-negative, and Her2/neu-negative was treated by mastectomy and adjuvant chemotherapy. Infraclavicular and supraclavicular recurrences were treated with γ- and telecobalt radiation, intrarterial and intravenous chemotherapy. A diffuse cutaneous lesion occurred on the scapula that, upon histological examination, contained an infiltrative ductal growth pattern (FIG. 1I).
as §2

With `CC(C)Cn1cnc2c(N)nc3ccccc3c21` [1-(2-methylpropyl)-1H-imidazo[4,5-c]quinolin-4-amine] the “skin lesions upon gross examination or histological examination after the treatment period” value ([1]; 5% cream (ALDARA) topically five times per week for six months) was “no skin lesions were detected”, the “time the patient has remained free of cutaneous metastasis” value ([1]; after topical treatment five times per week for six months) was “more than ten months” and the “skin biopsy of an affected area after the treatment period” value [2] was “free of carcinoma cells”.
